Experimental findings from patent US20190016747A1, “PURIFIED REBAUDIOSIDE A” (SGF Holdings, LLC, priority 2004, published 2019) are described below.

A short description of this series: Solubility in water by incremental addition of water until complete solubilization. It counts as physicochemical. To be noted: for % Solubility (solids (g)/ final volume (ml)): in water at room temperature, Example 4 samples. The method, then:
In Example 4, RA89.95 Stevia starting material was processed through two reflux stages of the industrial embodiment of the invention, and a sample of the final product of the industrial process used as starting material in a stirred wash stage of the laboratory embodiment of the invention. Specifically, 100 kilograms of RA90 Stevia starting material were mixed with 400 liters of 90Et/10W solvent (this experiment was conducted while the starting material assay was still being perfected) and refluxed for 1 hour at 80° C., then cooled (chilled water in tank jacket) and allowed to stand for a minimum of 2 hours with mixture temperature maintained between 4° C. and 20° C. The mixture was filtered through a centrifugal decanter, and the retentate added to 400 liters of 90Et/10W solvent and refluxed for 1 hour at 80° C. The mixture from the second reflux was filtered through a centrifugal decanter. The retentate of the filtering of the second reflux mixture was mixed with water until the volume of the mixture was approximately twice the mass of the retentate (e.g., 350 kg retentate in a total mixture volume of 700 liters). The mixture in water was heated to 80° C. for approximately one hour to purge any residual ethanol from the mixture, then the mixture was spray-dried. There was no reflux in absolute ethanol prior to spray drying. The spray-dried product was weighed and a 0.1 gram sample was analyzed for rebaudioside A content using the HPLC Method described above. Five grams of the spray-dried material was mixed with 20 mls of absolute ethanol in a 100 ml round-bottomed flask and refluxed for 1 hour at 80° C. (“refluxed sample”) and then allowed to cool to room temperature. A second 5 gram sample of the spray-dried material was mixed with 20 mls of absolute ethanol and stirred for 15 minutes at room temperature (“stirred sample”). Both samples were filtered over a Whatman GF/A glass fiber filter (1.6 μm pore size) and the retained solids of both samples were dried in a blower oven at 80° C. until the solids maintained a constant weight. 1 gram each of the refluxed sample and of the stirred sample were placed in 15 ml glass centrifuge tubes. Water was added to each tube in 0.1 ml increments and the mixture thoroughly shaken to ensure maximum solubilization. Incremental aliquots of water were added until complete solubilization was achieved as evidenced by the lack of any observable suspended solids in the solution. The final volume at which complete solubilization occurred in each sample was noted.

Where two headings read alike, the source gives them in different places.

As for `C=C1C[C@@]23CC[C@H]4[C@@](C)(CCC[C@@]4(C)C(=O)O[C@@H]4O[C@H](CO)[C@@H](O)[C@H](O)[C@H]4O)[C@@H]2CC[C@]1(O[C@@H]1O[C@H](CO)[C@@H](O)[C@H](O[C@@H]2O[C@H](CO)[C@@H](O)[C@H](O)[C@H]2O)[C@H]1O[C@@H]1O[C@H](CO)[C@@H](O)[C@H](O)[C@H]1O)C3` [1 hour reflux in 100% ethanol, rebaudioside A], the “% Solubility (solids (g)/ final volume (ml))” value (“% Solubility” below) came to 40%. Moreover, the “% Solubility” value (listed as 1 hour reflux in absolute ethanol) is reported as 40%.
For `C=C1C[C@@]23CC[C@H]4[C@@](C)(CCC[C@@]4(C)C(=O)O[C@@H]4O[C@H](CO)[C@@H](O)[C@H](O)[C@H]4O)[C@@H]2CC[C@]1(O[C@@H]1O[C@H](CO)[C@@H](O)[C@H](O[C@@H]2O[C@H](CO)[C@@H](O)[C@H](O)[C@H]2O)[C@H]1O[C@@H]1O[C@H](CO)[C@@H](O)[C@H](O)[C@H]1O)C3` [15 minute stir in 100% ethanol, rebaudioside A], the “% Solubility” value was 33%. In addition, where the note is “listed as 15 minute stirred wash in absolute ethanol”, the “% Solubility” value worked out at 33%.
With `C=C1C[C@@]23CC[C@H]4[C@@](C)(CCC[C@@]4(C)C(=O)O[C@@H]4O[C@H](CO)[C@@H](O)[C@H](O)[C@H]4O)[C@@H]2CC[C@]1(O[C@@H]1O[C@H](CO)[C@@H](O)[C@H](O[C@@H]2O[C@H](CO)[C@@H](O)[C@H](O)[C@H]2O)[C@H]1O[C@@H]1O[C@H](CO)[C@@H](O)[C@H](O)[C@H]1O)C3` [Example 6, rebaudioside A], the solubility in water (at 25° C.) is 59.0%.
As for `C=C1C[C@@]23CC[C@H]4[C@@](C)(CCC[C@@]4(C)C(=O)O[C@@H]4O[C@H](CO)[C@@H](O)[C@H](O)[C@H]4O)[C@@H]2CC[C@]1(O[C@@H]1O[C@H](CO)[C@@H](O)[C@H](O[C@@H]2O[C@H](CO)[C@@H](O)[C@H](O)[C@H]2O)[C@H]1O[C@@H]1O[C@H](CO)[C@@H](O)[C@H](O)[C@H]1O)C3` [No 100% ethanol treatment, rebaudioside A], the “% Solubility” value amounted to 2%. Moreover, the “% Solubility” value (listed as 99.6% Reb A purity product) was 2%.
`C=C1C[C@@]23CC[C@H]4[C@@](C)(CCC[C@@]4(C)C(=O)O[C@@H]4O[C@H](CO)[C@@H](O)[C@H](O)[C@H]4O)[C@@H]2CC[C@]1(O[C@@H]1O[C@H](CO)[C@@H](O)[C@H](O[C@@H]2O[C@H](CO)[C@@H](O)[C@H](O)[C@H]2O)[C@H]1O[C@@H]1O[C@H](CO)[C@@H](O)[C@H](O)[C@H]1O)C3` [final product, rebaudioside A] yielded a solubility in water of about 33%.
On to `C=C1C[C@@]23CC[C@H]4[C@@](C)(CCC[C@@]4(C)C(=O)O[C@@H]4O[C@H](CO)[C@@H](O)[C@H](O)[C@H]4O)[C@@H]2CC[C@]1(O[C@@H]1O[C@H](CO)[C@@H](O)[C@H](O[C@@H]2O[C@H](CO)[C@@H](O)[C@H](O)[C@H]2O)[C@H]1O[C@@H]1O[C@H](CO)[C@@H](O)[C@H](O)[C@H]1O)C3` [purified rebaudioside A, rebaudioside A], for which the solubility in water entry is “about 33%”.
